The record followed here is patent publication US20070155764A1, “NOVEL SUBSTITUTED PYRIMIDINYLOXY UREAS USEFUL AS INHIBITORS OF PROTEIN KINASES” (KALYPSYS, INC., priority 2005, published 2007).

pIC50: −log10 of the molar value.

Holding throughout (format): biochemical
The target of assay [1] is T1, human B-Raf protein kinase (Homo sapiens, UniProt P15056).
T1 construct: GST (N); purchased Upstate Inc. 14-530 (B-Raf); 14-420 (Mek1)
The assay can be described thus: In vitro B-Raf/Mek1 composite kinase assay. To be noted: recombinant GST-tagged human B-Raf (Δ1-415) with inactive Mek1, 2 μM ATP. The protocol: In Vitro B-Raf/Mek1 Composite Kinase Assay
2.5 μl of B-Raf kinase buffer (20 mM MOPS [pH 7.2], 25 mM sodium glycerophosphate, 2 mM EGTA [pH 8.0], 1 mM sodium orthovanadate, 1 mM dithiothreitol, 10 mM MgCl2, 0.03% Brij-35, 0.3 mg/ml bovine serum albumin) containing 1 ng of recombinant, N-terminal GST-tagged human B-Raf protein kinase (Δ1-415, Upstate Inc., cat. #14-530) is dispensed to wells of a 1536 multi-well white solid plate. 60 nl of 100× concentration of test compound in DMSO is dispensed to the well by passive pin transfer and incubated for 15 minutes at room temperature (approx. 22° C.). […] The assay plates are sealed and maintained in a humidified environment. After 2 hours, 2.5 μl of PKLight protein kinase assay reagent (Cambrex, cat. #LT07-501) is dispensed. After an additional 5 minute incubation at room temperature, luminescence activity is measured on a Molecular Devices Analyst multi-mode plate reader or other suitable plate reader. Kinase inhibition results in less ATP depletion, and therefore increased luminescence signal. Negative control activity is measured with DMSO lacking any test compound. The positive control is [N-(3-trifluoromethyl-4-chlorophenyl)-N′-(4-(2-methylcarbamoyl-pyridin-4-yl)oxyphenyl)urea], aka Bay 43-9006. Efficacy is measured as a percentage of positive control activity.

Assay [2] deals with T2, VEGFR2 kinase (Homo sapiens, UniProt P35968).
T2 construct: purchased Invitrogen Inc PV3660
The assay can be described thus: In vitro VEGFR2 kinase assay. To be noted: ADP Quest assay, poly Glu:Tyr substrate, 60 μM ATP. The protocol:
(§1) In vitro vegfr2 and PDGFRβ Kinase Assays
(§2) 2.5 μl of ADP Quest assay buffer (DiscoverX Inc., cat. #90-0071) containing 20 ng VEGFR2 kinase (Invitrogen Inc, cat. #PV3660) or 25 ng PDGFRβ kinase (Invitrogen Inc., cat. #P3082) is dispensed to wells of a 1536 multi-well, black solid plate. 60 nl of 100× concentration of test compound in DMSO is dispensed to the well by passive pin transfer and incubated for 10 minutes at room temperature (approx. 22° C.). 2.5 μl of ADP Quest assay buffer containing 0.25 μg of poly Glu:Tyr (4:1) substrate peptide (Upstate Inc., cat. #12-440) and 60 μM ATP is then dispensed and the kinase reaction allowed to incubate at 30° C. for 2 hours. The assay plates are sealed and maintained in a humidified environment. After the 2 hour incubation, 2 μl of ADP Quest assay reagent A, followed by 2 μl of assay reagent B, is added. After an additional 30 minute incubation at room temperature, fluorescence intensity is measured on a Molecular Devices Aquest multi-mode plate reader or other suitable plate reader (fluorescence excitation filter: 530/25 [Peak (nm)/FWHM passband (nm)]; dichroic beamsplitter: 561 nm longpass; fluorescence emission filter: 580/10 [Peak (nm)/FWHM passband (nm)]. The assay measures the conversion of a non-fluoresecent molecule to fluorescent resorutin, which correlates with kinase activity. Negative control activity is measured with DMSO lacking any test compound. The positive control is [N-(3-trifluoromethyl-4-chlorophenyl)-N′-(4-(2-methylcarbamoyl-pyridin-4-yl)oxyphenyl)urea], aka Bay 43-9006. Efficacy is measured as a percentage of positive control activity.

In assay [3] the target is T3, PDGFRβ kinase (Homo sapiens, UniProt P09619).
T3 construct: purchased Invitrogen Inc. P3082
The assay can be described thus: In vitro PDGFRβ kinase assay. To be noted: ADP Quest assay, poly Glu:Tyr substrate, 60 μM ATP. The protocol: as §1, §2

T3 sequence (P09619 33-1106): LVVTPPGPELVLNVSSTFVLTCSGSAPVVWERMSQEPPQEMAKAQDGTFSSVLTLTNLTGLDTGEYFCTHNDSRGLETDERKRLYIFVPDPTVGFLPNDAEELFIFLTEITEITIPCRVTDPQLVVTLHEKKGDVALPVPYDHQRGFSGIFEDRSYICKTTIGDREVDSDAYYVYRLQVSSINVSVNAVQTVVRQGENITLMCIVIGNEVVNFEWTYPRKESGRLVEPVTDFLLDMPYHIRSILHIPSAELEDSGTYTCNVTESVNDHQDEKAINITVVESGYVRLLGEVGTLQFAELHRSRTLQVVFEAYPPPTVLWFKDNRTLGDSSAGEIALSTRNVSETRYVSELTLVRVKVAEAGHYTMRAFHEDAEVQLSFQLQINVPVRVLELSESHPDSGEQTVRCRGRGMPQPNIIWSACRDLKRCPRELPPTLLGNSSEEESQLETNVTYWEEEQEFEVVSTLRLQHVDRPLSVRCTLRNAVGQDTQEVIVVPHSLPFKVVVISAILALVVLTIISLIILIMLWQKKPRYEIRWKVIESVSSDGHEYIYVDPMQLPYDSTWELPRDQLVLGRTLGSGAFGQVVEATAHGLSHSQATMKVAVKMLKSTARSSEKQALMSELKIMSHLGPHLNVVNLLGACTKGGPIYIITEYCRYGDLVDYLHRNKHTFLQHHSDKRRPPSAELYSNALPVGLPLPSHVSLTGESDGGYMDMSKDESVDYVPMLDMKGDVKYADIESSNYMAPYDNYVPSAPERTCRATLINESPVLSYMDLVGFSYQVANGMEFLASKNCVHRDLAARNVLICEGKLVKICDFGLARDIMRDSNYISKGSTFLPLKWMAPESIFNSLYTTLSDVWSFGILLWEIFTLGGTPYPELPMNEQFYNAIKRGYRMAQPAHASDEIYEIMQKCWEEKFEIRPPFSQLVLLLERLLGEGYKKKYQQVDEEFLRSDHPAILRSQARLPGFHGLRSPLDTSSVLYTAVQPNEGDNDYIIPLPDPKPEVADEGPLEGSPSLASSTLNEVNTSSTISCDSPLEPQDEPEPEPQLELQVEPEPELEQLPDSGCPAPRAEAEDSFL
T2 sequence (P35968 20-1356): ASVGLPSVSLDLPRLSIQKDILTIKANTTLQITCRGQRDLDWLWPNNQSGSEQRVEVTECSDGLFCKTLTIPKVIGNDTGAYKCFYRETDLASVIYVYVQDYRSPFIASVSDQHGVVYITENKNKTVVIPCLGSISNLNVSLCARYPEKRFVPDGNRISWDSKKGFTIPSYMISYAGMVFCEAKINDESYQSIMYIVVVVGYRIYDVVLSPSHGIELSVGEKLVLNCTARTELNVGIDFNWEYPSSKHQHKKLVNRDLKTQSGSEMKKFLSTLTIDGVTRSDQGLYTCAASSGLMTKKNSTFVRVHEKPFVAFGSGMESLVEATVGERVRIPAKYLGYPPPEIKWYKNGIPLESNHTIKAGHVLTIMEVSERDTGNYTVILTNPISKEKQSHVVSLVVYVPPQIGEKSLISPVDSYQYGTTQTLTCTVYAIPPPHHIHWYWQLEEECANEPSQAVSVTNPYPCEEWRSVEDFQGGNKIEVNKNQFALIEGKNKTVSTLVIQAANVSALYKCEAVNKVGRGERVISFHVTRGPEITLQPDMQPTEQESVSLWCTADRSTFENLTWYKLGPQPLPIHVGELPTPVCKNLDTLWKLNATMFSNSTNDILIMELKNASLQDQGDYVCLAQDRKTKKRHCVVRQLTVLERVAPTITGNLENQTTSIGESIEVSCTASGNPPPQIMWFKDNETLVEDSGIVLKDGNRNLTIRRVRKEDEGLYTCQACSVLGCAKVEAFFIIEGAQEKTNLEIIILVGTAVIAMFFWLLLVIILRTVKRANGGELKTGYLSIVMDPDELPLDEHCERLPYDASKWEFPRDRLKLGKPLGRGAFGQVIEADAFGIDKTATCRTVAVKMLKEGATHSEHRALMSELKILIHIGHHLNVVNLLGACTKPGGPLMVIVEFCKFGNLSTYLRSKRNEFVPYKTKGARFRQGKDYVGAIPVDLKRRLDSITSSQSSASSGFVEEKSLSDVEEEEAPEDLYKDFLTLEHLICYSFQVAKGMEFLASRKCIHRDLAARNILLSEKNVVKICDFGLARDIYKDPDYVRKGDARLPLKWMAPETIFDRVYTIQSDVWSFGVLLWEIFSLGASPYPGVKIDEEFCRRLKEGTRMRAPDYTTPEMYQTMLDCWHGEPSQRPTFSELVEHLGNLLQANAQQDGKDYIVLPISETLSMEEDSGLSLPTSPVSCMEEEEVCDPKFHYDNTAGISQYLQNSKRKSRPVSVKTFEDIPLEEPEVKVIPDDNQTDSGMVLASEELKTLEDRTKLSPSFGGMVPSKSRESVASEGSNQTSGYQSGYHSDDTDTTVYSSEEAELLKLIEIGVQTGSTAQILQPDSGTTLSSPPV
T1 sequence (P15056 416-766): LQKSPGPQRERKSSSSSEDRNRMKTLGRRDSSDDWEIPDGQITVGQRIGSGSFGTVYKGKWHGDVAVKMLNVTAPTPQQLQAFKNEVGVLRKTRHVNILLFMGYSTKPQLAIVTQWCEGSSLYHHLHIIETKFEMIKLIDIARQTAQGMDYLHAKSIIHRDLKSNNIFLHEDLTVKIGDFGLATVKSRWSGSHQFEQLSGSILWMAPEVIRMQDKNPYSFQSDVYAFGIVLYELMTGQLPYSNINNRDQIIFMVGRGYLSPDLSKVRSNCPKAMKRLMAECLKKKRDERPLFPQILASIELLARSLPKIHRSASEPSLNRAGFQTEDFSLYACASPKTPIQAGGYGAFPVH

`O=C(Nc1ccc(Oc2cc(-n3cncn3)ncn2)cc1)Nc1ccc(Cl)c(C(F)(F)F)c1` [Example 1, 1-(4-Chloro-3-trifluoromethyl-phenyl)-3-[4-(6-[1,2,4]triazol-1-yl-pyrimidin-4-yloxy)-phenyl]-urea]: the pIC50 in assay [1], in assay [2] and in assay [3] was at least 5.00 throughout.
As to `O=C(Nc1ccc(Oc2ccnc(-n3cncn3)n2)cc1)Nc1ccc(Cl)c(C(F)(F)F)c1` [Example 2, 1-(4-Chloro-3-trifluoromethyl-phenyl)-3-[4-(2-[1,2,4]triazol-1-yl-pyrimidin-4-yloxy)-phenyl]-urea], the pIC50 in assay [1], in assay [2] and in assay [3] was below 5.00 each time.
With `O=C(Nc1ccc(Oc2cc(-c3ncon3)ncn2)cc1)Nc1ccc(Cl)c(C(F)(F)F)c1` [Example 3, 1-(4-Chloro-3-trifluoromethyl-phenyl)-3-[4-(6-[1,2,4]oxadiazol-3-yl-pyrimidin-4-yloxy)-phenyl]-urea], the pIC50 is below 5.00 in assay [1], at least 5.00 in assay [2] and at least 5.00 in assay [3].
Take `COc1cc(CNC(=O)Nc2cccc(Oc3ccnc(-c4nnco4)c3)c2)cc(OC)c1OC` [Example 5, 1-[3-(2-[1,3,4]Oxadiazol-2-yl-pyridin-4-yloxy)-phenyl]-3-(3,4,5-trimethoxybenzyl)-urea]: the results for the pIC50 in assay [1], in assay [2] and in assay [3] were at least 5.00, at least 5.00 and below 5.00, respectively.
Consider `Cc1cc(Oc2ccc(NC(=O)Nc3ccc(Cl)c(C(F)(F)F)c3)cc2)nc(-n2ccnc2)n1` [Example 6, 1-(4-(2-(1H-imidazol-1-yl)-6-methylpyrimidin-4-yloxy)phenyl)-3-(4-chloro-3-(trifluoromethyl)phenyl)urea], for which the pIC50 in assay [1] was at least 5.00; in assay [2], below 5.00; in assay [3], below 5.00.
`O=C(Nc1ccc(Oc2ccnc(-c3ncon3)n2)cc1)Nc1ccc(Cl)c(C(F)(F)F)c1` [Example 7, 1-(4-(2-(1,2,4-Oxadiazol-3-yl)pyrimidin-4-yloxy)phenyl)-3-(4-chloro-3-(trifluoromethyl)phenyl)urea]: the pIC50 in assay [1] is below 5.00.
For the compound `O=C(Nc1ccc(Oc2cc(-c3nnco3)ncn2)cc1)Nc1ccc(Cl)c(C(F)(F)F)c1` [Example 8, 1-(4-(6-(1,3,4-Oxadiazol-2-yl)pyrimidin-4-yloxy)phenyl)-3-(4-chloro-3-(trifluoromethyl)phenyl)urea], the pIC50 in assay [1], in assay [2] and in assay [3] was at least 5.00 each time.
As for `O=C(Nc1cccc(Oc2cc(-c3nnco3)ncn2)c1)Nc1ccc(Cl)c(C(F)(F)F)c1` [Example 9, 1-(3-(6-(1,3,4-Oxadiazol-2-yl)pyrimidin-4-yloxy)phenyl)-3-(4-chloro-3-(trifluoromethyl)phenyl)urea], the pIC50 in assay [1], in assay [2] and in assay [3] was at least 5.00 throughout.
As to `O=C(Nc1cccc(Oc2cc(-c3ncon3)ncn2)c1)Nc1ccc(Cl)c(C(F)(F)F)c1` [Example 10, 1-(3-(6-(1,2,4-Oxadiazol-3-yl)pyrimidin-4-yloxy)phenyl)-3-(4-chloro-3-(trifluoromethyl)phenyl)urea], the pIC50 in assay [1], in assay [2] and in assay [3] was at least 5.00 each time.
For `Cc1nnc(-c2cc(Oc3cccc(NC(=O)Nc4ccc(Cl)c(C(F)(F)F)c4)c3)ncn2)o1` [Example 11, 1-(4-Chloro-3-(trifluoromethyl)phenyl)-3-(3-(6-(5-methyl-1,3,4-oxadiazol-2-yl)pyrimidin-4-yloxy)phenyl)urea], the pIC50 in assay [1], in assay [2] and in assay [3] was at least 5.00 each time.
For `O=C(Nc1cccc(Oc2ccnc(-c3nnco3)n2)c1)Nc1ccc(Cl)c(C(F)(F)F)c1` [Example 12, 1-(3-(2-(1,3,4-oxadiazol-2-yl)pyrimidin-4-yloxy)phenyl)-3-(4-chloro-3-(trifluoromethyl)phenyl)urea], the pIC50 in assay [1], in assay [2] and in assay [3] was at least 5.00 each time.
As to `O=C(Nc1ccc(Oc2cc(-c3ncco3)ncn2)cc1)Nc1ccc(Cl)c(C(F)(F)F)c1` [Example 13, 1-(4-Chloro-3-(trifluoromethyl)phenyl)-3-(4-(6-(oxazol-2-yl)pyrimidin-4-yloxy)phenyl)urea], the pIC50 in assay [1], in assay [2] and in assay [3] was at least 5.00 in each case.
For the compound `O=C(Nc1cccc(Oc2cc(-c3ncco3)ncn2)c1)Nc1ccc(Cl)c(C(F)(F)F)c1` [Example 14, 1-(4-chloro-3-(trifluoromethyl)phenyl)-3-(3-(6-(oxazol-2-yl)pyrimidin-4-yloxy)phenyl)urea], the pIC50 in assay [1], in assay [2] and in assay [3] was at least 5.00 throughout.
Consider `O=C(Nc1cccc(Oc2cc(-c3ncno3)ncn2)c1)Nc1ccc(Cl)c(C(F)(F)F)c1` [Example 15, 1-(3-(6-(1,2,4-oxadiazol-5-yl)pyrimidin-4-yloxy)phenyl)-3-(4-chloro-3-(trifluoromethyl)phenyl)urea], for which the pIC50 in assay [1], in assay [2] and in assay [3] was at least 5.00 in each case.
On to `Cn1ncnc1-c1cc(Oc2cccc(NC(=O)Nc3ccc(Cl)c(C(F)(F)F)c3)c2)ncn1` [Example 16, 1-(4-Chloro-3-(trifluoromethyl)phenyl)-3-(3-(6-(1-methyl-1H-1,2,4-triazol-5-yl)pyrimidin-4-yloxy)phenyl)urea], for which the pIC50 in assay [1], in assay [2] and in assay [3] was at least 5.00 each time.
As to `O=C(Nc1cccc(Oc2cc(-c3ncn[nH]3)ncn2)c1)Nc1ccc(Cl)c(C(F)(F)F)c1` [Example 17, 1-(3-(6-(1H-1,2,4-Triazol-5-yl)pyrimidin-4-yloxy)phenyl)-3-(4-chloro-3-(trifluoromethyl)phenyl)urea], the negative logarithm of the IC50 (pIC50) in assay [1], in assay [2] and in assay [3] was at least 5.00 each time.
Turning to `O=C(Nc1ccc(Oc2cc(-c3ncno3)ncn2)cc1)Nc1ccc(Cl)c(C(F)(F)F)c1` [Example 18, 1-(4-(6-(1,2,4-Oxadiazol-5-yl)pyrimidin-4-yloxy)phenyl)-3-(4-chloro-3-(trifluoromethyl)phenyl)urea], the pIC50 is below 5.00 in assay [1], at least 5.00 in assay [2] and at least 5.00 in assay [3].
Consider `O=C(Nc1cccc(Oc2cc(-c3nnn[nH]3)ncn2)c1)Nc1ccc(Cl)c(C(F)(F)F)c1` [Example 19, 1-(3-(6-(1H-Tetrazol-5-yl)pyrimidin-4-yloxy)phenyl)-3-(4-chloro-3-(trifluoromethyl)phenyl)urea], for which the pIC50 is below 5.00 in assay [1], at least 5.00 in assay [2] and at least 5.00 in assay [3].
As to `Cn1nnc(-c2cc(Oc3cccc(NC(=O)Nc4ccc(Cl)c(C(F)(F)F)c4)c3)ncn2)n1` [Example 20, 1-(4-Chloro-3-(trifluoromethyl)phenyl)-3-(3-(6-(2-methyl-2H-tetrazol-5-yl)pyrimidin-4-yloxy)phenyl)urea], the pIC50 in assay [1], in assay [2] and in assay [3] was at least 5.00 throughout.
`Cn1nnnc1-c1cc(Oc2cccc(NC(=O)Nc3ccc(Cl)c(C(F)(F)F)c3)c2)ncn1` [Example 21, 1-(4-chloro-3-(trifluoromethyl)phenyl)-3-(3-(6-(1-methyl-1H-tetrazol-5-yl)pyrimidin-4-yloxy)phenyl)urea]: the pIC50 in assay [1], in assay [2] and in assay [3] was at least 5.00 throughout.
For `NC(=O)Cn1cc(-c2cc(Oc3cccc(NC(=O)Nc4ccc(Cl)c(C(F)(F)F)c4)c3)ncn2)cn1` [Example 55, 2-(4-(6-(3-(3-(4-Chloro-3-(trifluoromethyl)phenyl)ureido)phenoxy)pyrimidin-4-yl)-1H-pyrazol-1-yl)acetamide], the pIC50 in assay [1] and in assay [2] was at least 5.00 each time.

For orientation: pIC50 means −log10 of the IC50, conventionally taken in molar units.
